Data as given in patent publication US20250222120A1, “SYNTHESIS OF NOVEL SMALL MOLECULE CARM1 DEGRADERS, COMPOUNDS FORMED THEREBY, AND PHARMACEUTICAL COMPOSITIONS CONTAINING THEM” (Wisconsin Alumni Research Foundation, priority 2024, published 2025).

Assays:
Type in all cases: cell-based
[1] = molecular target: T1, CARM1 (Homo sapiens, UniProt Q86X55); experiment: CARM1 degradation by western blot in BT474 cells; settings: ER+/HER2+ BT474 cells, 0.5 μM, after 24 or 48 h
T1 sequence (Q86X55 1-608): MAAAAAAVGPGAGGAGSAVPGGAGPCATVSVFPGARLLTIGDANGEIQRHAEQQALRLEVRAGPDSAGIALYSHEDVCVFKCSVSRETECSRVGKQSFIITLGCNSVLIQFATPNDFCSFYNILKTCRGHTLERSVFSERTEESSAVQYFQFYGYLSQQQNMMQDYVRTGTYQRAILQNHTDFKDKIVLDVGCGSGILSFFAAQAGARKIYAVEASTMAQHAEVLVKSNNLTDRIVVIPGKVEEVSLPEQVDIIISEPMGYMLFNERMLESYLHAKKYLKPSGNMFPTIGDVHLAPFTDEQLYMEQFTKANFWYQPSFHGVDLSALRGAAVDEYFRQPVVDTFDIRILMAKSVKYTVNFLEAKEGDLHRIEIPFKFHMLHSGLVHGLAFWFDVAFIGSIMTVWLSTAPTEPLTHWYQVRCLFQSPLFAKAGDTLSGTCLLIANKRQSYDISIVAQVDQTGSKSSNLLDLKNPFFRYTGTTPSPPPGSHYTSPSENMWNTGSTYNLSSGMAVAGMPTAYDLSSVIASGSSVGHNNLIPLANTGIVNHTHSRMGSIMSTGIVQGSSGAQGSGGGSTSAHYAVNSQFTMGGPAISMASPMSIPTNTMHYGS
Source text: (§1) FIGS. 7A-7F. […] Cell lysates were collected and CARM1, methyl-BAF155, total BAF155, methyl-PABP1, and total PABP1 levels were detected by Western blot. […] Cell lysates were collected and CARM1, methyl-BAF155, total BAF155 levels were detected by Western blot. […] Cell proliferation rate normalized to day 0 was plotted. […] Migrated cells were stained with 1% crystal violet and the percentage of migrated cells were plotted. Data mean±s.d. ***. P≤0.001.
(§2) Western Blot Assay. Cells were harvested and washed with Dulbecco's phosphate-buffered saline (PBS), then lysed with 1×RIPA lysis buffer (50 mM Tris pH 7.5, 150 mM NaCl, 1% NP-40, 0.5% sodium deoxycholate, and 0.1% sodium dodecyl sulfate) supplemented with 1 mM phenylmethylsulfonyl fluoride, 10 μg/mL aprotinin, 1 μM leupeptin, and 10 μg/mL pepstatin on ice for 20 min. The supernatant was collected after spinning down at 15000 RPM at 4 degrees Celsius for 10 min. The concentration of whole lysates was quantified using a Bradford assay. 50-75 μg of cell lysates was boiled in 4× Laemmli Loading Dye and boiled at 100 degrees Celsius for 10 min. 25 μg were run in 8% SDS-PAGE gels and transferred to nitrocellulose membranes. Blots were blocked in 5% skim milk in PBST [PBS and 0.1% Tween 20] for 45 min, then incubated with primary antibodies at 4 degrees Celsius overnight. […]

[2] = test system: BAF155 me2a; experiment: BAF155 me2a level in MDA-MB-231 cells, western blot; settings: 0.5 μM, after 48 h
Source text: as §1, §2

[3] = test system: MDA-MB-231 cells; experiment: Transwell migration assay, MDA-MB-231 cells
Description: Transwell Migration Assay. Cells were harvested and washed in serum-free DMEM. The wells of a 24-well plate were filled with 800 μL of DMEM with 10% FBS. Transwell inserts with […] pore size were then added to the wells with DMEM. Cells were resuspended in serum-free DMEM, then 1×10^5 cells in 200 μL were added to the upper chambers. Drug treatments were added to the lower chambers, then incubated for 20 h at 37° C. The cells on the upper surface were removed with cotton swabs. Migratory cells were fixed in 3.7% formaldehyde at room temperature, followed by 100% methanol at −20° C. Fixed cells were stained with 1% crystal violet in 20% methanol for 30 min. The migration area was quantified from five independent fields of view of the lower surface of the membrane under a microscope.

[4] = molecular target: T1, CARM1; experiment: CARM1 degradation by western blot in MCF10A cells; design: endogenous in cells; settings: normal human mammary epithelial cell model
Description: FIG. 5. […] Cell lysates were collected and the CARM1 levels were detected by western blots.
as §2, with “overnight. Blots were washed in PBST for 30 min, then incubated with horseradish peroxidase-linked secondary antibodies (Jackson ImmunoResearch) for 1 hr. Afterwards, blots were washed in PBST for 15-30 min, then treated with chemiluminescent ECL reagent and imaged with the ChemiDoc Imaging System (Bio-Rad) or Azure 600 (Azure Biosystems).” for “overnight.”

SMILES: CNCCN1CCC(c2cc(CN(C)C(=O)c3cccc(Oc4ccc(OCC(=O)N5CCC(CN6CCC(CN7CCN(CC(=O)N[C@H](C(=O)N8C[C@H](O)C[C@H]8C(=O)N[C@@H](C)c8ccc(-c9scnc9C)cc8)C(C)(C)C)CC7)CC6)CC5)cc4)c3)ccn2)CC1 [Compound 3b, (2S,4R)-1-((S)-3,3-dimethyl-2-(2-(4-((1-((1-(2-(4-(3-(methyl((2-(1-(2-(methylamino)ethyl)piperidin-4-yl)pyridin-4-yl)methyl)carbamoyl)phenoxy)phenoxy)acetyl)piperidin-4-yl)methyl)piperidin-4-yl)methyl)piperazin-1-yl)acetamido)butanoyl)-4-hydroxy-N—((S)-1-(4-(4-methylthiazol-5-yl)phenyl)ethyl)pyrrolidine-2-carboxamide]
- CARM1 degradation [1]: effectively degraded
- BAF155 me2a level [2]: decrease of BAF155 me2a level was observed
- Dose lower than the corresponding inhibitor for the same anti-migratory effects ([3]; 0.5 μM 3b versus 10 μM TP-064): 20 fold
- Cell migration ([3]; 0.5 μM, transwell, 20 h): inhibited cell migration at a similar level
- CARM1 degradation [4]: high potency for CARM1 degradation
